The text below walks through data of US9951040B2, “1,3,5 -triazine based PI3K inhibitors as anticancer agents and a process for the preparation thereof” (Council of Scientific and Industrial Research, priority 2014, dated 2018).

In one experiment the test system is PC-3 Cell line. Kind of experiment: MTT cell proliferation assay, PC-3. Particulars: Homo sapiens, PC-3, 120 h, 5 days. Type of experiment: cell-based. As for the experimental part:
(§1) Human breast cancer cell lines MDAMB231, MFC-7 and human prostate carcinoma cell line PC-3 were obtained from European Collection of Cell Cultures (ECACC). Cells were grown in […] medium supplemented with 10% fetal bovine serum (FBS), penicillin (100 units/ml), streptomycin (100 μg/ml), L-glutamine (0.3 mg/ml), sodium pyruvate ([…]), and NaHCO3 (2 mg/ml). Cells were grown in CO2 incubator (Thermocon Electron Corporation, USA) at 37° C. in an atmosphere of 95% air and 5% CO2 with 98% humidity. Different molecules were dissolved in DMSO and were delivered to cell cultures in complete medium.
(§2) MTT assay was done to determine the viability of the cells and was done as described previously (Kumar et al, 2013). Briefly, 6×10^3 were seeded in 96 well plates and were treated with different concentrations of different molecules for 5 days. 20 μl of MTT dye (2.5 mg/ml) was added 3 h before the termination of the experiment. Formazen crystals were dissolved in 150 μl of DMSO and OD was measured at 570 nm.

For a further experiment, the target named is PI3K alpha (Homo sapiens, UniProt P42336). The experiment in a line: PI3K-α assay (ADP-Glo enzyme inhibition). Type of experiment: biochemical. Particulars: at 500 nm. On the procedure: Compounds were evaluated for their ability to inhibit class I PI3-kinase enzyme alpha as given below. PI3K-α Assay: PI3K alpha (diluted in 12.5 mM Glycine-NaOH (pH 8.5), 50 mM KCl, 2.5 mM MgCl2, 1 mM DTT, 0.05% CHAPS) is assayed in total volume of 20 ul containing 12.5 mM glycine-NaOH (pH 8.5), 50 mM KCl, 2.5 mM MgCl2, 1 mM DTT, 0.05% CHAPS, 0.01 mM ATP and 0.05 mM diC8 PIP2. The enzyme is assayed for 80 min after which 20 ul of ADP-Glo reagent is added. After a further incubation of 40 min, 40 ul of Kinase Detection Buffer is added. The assays are incubated for 40 min and then read on PerkinElmer Envision for 1 sec/well.
Sequence of PI3K alpha (P42336 whole entry, species assumed): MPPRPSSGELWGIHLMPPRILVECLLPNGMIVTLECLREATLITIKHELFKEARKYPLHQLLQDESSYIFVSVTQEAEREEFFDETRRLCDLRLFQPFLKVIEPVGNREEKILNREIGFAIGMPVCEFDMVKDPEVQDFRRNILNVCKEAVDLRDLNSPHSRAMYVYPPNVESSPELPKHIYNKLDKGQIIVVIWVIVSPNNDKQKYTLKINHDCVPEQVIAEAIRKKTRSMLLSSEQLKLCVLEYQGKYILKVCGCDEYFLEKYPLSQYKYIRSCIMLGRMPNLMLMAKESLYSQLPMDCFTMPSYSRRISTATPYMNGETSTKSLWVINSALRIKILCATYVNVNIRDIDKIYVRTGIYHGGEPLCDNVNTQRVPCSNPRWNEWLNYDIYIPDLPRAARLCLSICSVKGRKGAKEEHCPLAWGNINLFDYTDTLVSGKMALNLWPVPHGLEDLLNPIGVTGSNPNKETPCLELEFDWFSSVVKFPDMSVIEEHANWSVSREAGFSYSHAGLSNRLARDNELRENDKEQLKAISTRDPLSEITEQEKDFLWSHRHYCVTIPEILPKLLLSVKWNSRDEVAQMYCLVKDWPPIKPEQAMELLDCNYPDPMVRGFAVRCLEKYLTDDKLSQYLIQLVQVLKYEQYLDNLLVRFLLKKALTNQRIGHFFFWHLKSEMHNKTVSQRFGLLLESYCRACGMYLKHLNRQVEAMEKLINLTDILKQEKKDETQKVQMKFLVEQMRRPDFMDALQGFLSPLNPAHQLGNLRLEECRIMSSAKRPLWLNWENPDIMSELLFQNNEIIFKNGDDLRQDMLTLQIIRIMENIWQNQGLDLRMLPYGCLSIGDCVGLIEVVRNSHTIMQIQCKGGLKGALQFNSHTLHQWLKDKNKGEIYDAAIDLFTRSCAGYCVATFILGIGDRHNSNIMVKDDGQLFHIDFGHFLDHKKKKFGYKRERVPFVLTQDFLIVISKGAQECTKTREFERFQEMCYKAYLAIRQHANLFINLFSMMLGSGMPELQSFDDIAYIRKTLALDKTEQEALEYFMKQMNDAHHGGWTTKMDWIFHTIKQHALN
Sequence of PI3K alpha (P27986 whole entry partner, species assumed): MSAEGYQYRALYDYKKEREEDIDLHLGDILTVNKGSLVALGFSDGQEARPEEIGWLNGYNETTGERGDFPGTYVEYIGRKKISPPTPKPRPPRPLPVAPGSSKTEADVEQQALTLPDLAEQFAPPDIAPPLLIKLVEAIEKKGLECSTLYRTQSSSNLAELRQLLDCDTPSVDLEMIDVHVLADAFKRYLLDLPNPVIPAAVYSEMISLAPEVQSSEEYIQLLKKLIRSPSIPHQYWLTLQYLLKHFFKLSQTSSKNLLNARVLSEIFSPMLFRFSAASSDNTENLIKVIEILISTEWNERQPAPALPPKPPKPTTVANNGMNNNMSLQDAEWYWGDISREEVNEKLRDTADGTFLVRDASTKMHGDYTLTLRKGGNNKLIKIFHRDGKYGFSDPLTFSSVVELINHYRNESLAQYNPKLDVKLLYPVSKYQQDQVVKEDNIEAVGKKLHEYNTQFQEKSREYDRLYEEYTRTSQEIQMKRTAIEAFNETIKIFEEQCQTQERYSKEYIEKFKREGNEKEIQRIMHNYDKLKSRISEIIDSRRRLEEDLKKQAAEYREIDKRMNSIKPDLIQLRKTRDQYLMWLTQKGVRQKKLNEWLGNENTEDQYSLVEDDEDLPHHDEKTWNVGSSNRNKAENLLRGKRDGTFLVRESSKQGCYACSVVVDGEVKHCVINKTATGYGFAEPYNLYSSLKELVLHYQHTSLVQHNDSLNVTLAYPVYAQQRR
(In general: ADP-Glo first removes unused ATP, then detects ADP through luciferase.)

The next experiment deals with MDA-MB231 Cell line. The experiment in a line: MTT cell proliferation assay, MDA-MB231. Format: cell-based. Particulars: Homo sapiens, MDA-MB-231, 120 h, 5 days. On the procedure: as §1, §2
A further experiment concerns MCF-7 Cell line. The experiment in a line: MTT cell proliferation assay, MCF-7. Type of experiment: cell-based. Particulars: Homo sapiens, MCF7, 120 h, 5 days. As for the experimental part: as §1, §2
On the technique in general: Formazan colour is commonly taken as a measure of viable cells.

[1] abbreviates: read-out: In vitro PI3K α % of inhibition.
Where [2] appears, read: read-out: inhibition against PI3K alpha.

Where two headings read alike, the source gives them in different places. Bounds are passed on as bounds.

Consider `Cc1ccc(NC2CCN(c3nc(N4CCOCC4)nc(-n4c(C(F)F)nc5ccccc54)n3)CC2)cc1` [1B30, 1-(4-(2-(difluoromethyl)-1H-benzo[d]imidazol-1-yl)-6-morpholino-1,3,5-triazin-2-yl)-N-(p-tolyl)piperidin-4-amine], for which the inhibition at 10 µM in the experiment on PC-3 Cell line was 30 to 50%; in the experiment with MDA-MB231 Cell line, 30 to 50%; in the experiment on MCF-7 Cell line it was more than 50%. The inhibition at 0.5 µM at PI3K alpha (setting [1]) lay in the range of 50 to 70%.

`FC(F)c1nc2ccccc2n1-c1nc(N2CCOCC2)nc(N2CCC(Oc3ccc(Cl)cc3)CC2)n1` [1B5, 4-(4-(4-(4-chlorophenoxy)piperidin-1-yl)-6-(2-(difluoromethyl)-1H-benzo[d]imidazol-1-yl)-1,3,5-triazin-2-yl)morpholine]: the inhibition at 0.5 µM at PI3K alpha (setting [1]) was 50 to 70%. The inhibition at 10 µM is 30 to 50% in the experiment on MDA-MB231 Cell line and more than 50% with MCF-7 Cell line.

With `FC(F)c1nc2ccccc2n1-c1nc(N2CCOCC2)nc(N2CCC(Nc3ccc(OC(F)(F)F)cc3)CC2)n1` [1B23, 1-(4-(2-(difluoromethyl)-1H-benzo[d]imidazol-1-yl)-6-morpholino-1,3,5-triazin-2-yl)-N-(4-(trifluoromethoxy)phenyl)piperidin-4-amine], the inhibition at 10 µM in the experiment on PC-3 Cell line and with MCF-7 Cell line was 30 to 50% each time. In addition, the inhibition at 0.5 µM at PI3K alpha (setting [1]) and at PI3K alpha (setting [2]) was more than 70% each time.

Take `O=C(N(c1ccc(F)cc1)c1nc(N2CCOCC2)nc(N2CCC(Oc3ccccc3)CC2)n1)C(F)(F)F` [1A5, 2,2,2-trifluoro-N-(4-fluorophenyl)-N-(4-morpholino-6-(4-phenoxypiperidin-1-yl)-1,3,5-triazin-2-yl)acetamide]: the inhibition at 10 µM is more than 50% in the experiment on PC-3 Cell line, 30 to 50% with MDA-MB231 Cell line and 30 to 50% in the experiment with MCF-7 Cell line. Further, the inhibition at 0.5 µM at PI3K alpha (setting [1]) and on PI3K alpha (setting [2]) was more than 70% throughout.

For the molecule `FC(F)c1nc2ccccc2n1-c1nc(N2CCOCC2)nc(N2CCC(Oc3ccccc3Cl)CC2)n1` [1B7, 4-(4-(4-(2-chlorophenoxy)piperidin-1-yl)-6-(2-(difluoromethyl)-1H-benzo[d]imidazol-1-yl)-1,3,5-triazin-2-yl)morpholine], at PI3K alpha (setting [1]), the inhibition at 0.5 µM lay in the range of 50 to 70%. The inhibition at 10 µM in the experiment with MDA-MB231 Cell line was 30 to 50%; with MCF-7 Cell line, more than 50%.

For `Cc1ccccc1NC1CCN(c2nc(N3CCOCC3)nc(-n3c(C(F)F)nc4ccccc43)n2)CC1` [1B32, 1-(4-(2-(difluoromethyl)-1H-benzo[d]imidazol-1-yl)-6-morpholino-1,3,5-triazin-2-yl)-N-(o-tolyl)piperidin-4-amine], the inhibition at 10 µM in the experiment on PC-3 Cell line is 30 to 50%; with MDA-MB231 Cell line it was 30 to 50%; with MCF-7 Cell line, more than 50%. Further, the inhibition at 0.5 µM on PI3K alpha (setting [1]) is 50 to 70%.

Take `Fc1ccc(OC2CCN(c3nc(N4CCOCC4)nc(-n4c(C(F)F)nc5ccccc54)n3)CC2)cc1` [1B1, 4-(4-(2-(difluoromethyl)-1H-benzo[d]imidazol-1-yl)-6-(4-(4-fluorophenoxy)piperidin-1-yl)-1,3,5-triazin-2-yl)morpholine]: the inhibition at 10 µM in the experiment with PC-3 Cell line, in the experiment with MDA-MB231 Cell line and in the experiment with MCF-7 Cell line was more than 50% each time. For the same molecule, the inhibition at 0.5 µM at PI3K alpha (setting [1]) and on PI3K alpha (setting [2]) was more than 70% in each case.

Consider `Cc1ccccc1OC1CCN(c2nc(N3CCOCC3)nc(-n3c(C(F)F)nc4ccccc43)n2)CC1` [1B12, 4-(4-(2-(difluoromethyl)-1H-benzo[d]imidazol-1-yl)-6-(4-(o-tolyloxy)piperidin-1-yl)-1,3,5-triazin-2-yl)morpholine], for which the figures for the inhibition at 10 µM in the experiment on PC-3 Cell line, with MDA-MB231 Cell line and with MCF-7 Cell line were 30 to 50%, 30 to 50% and more than 50%, respectively. In addition, the inhibition at 0.5 µM on PI3K alpha (setting [1]) and at PI3K alpha (setting [2]) was more than 70% each time.

For the molecule `COc1ccc(NC2CCN(c3nc(N4CCOCC4)nc(-n4c(C(F)F)nc5ccccc54)n3)CC2)cc1` [1B24, 1-(4-(2-(difluoromethyl)-1H-benzo[d]imidazol-1-yl)-6-morpholino-1,3,5-triazin-2-yl)-N-(4-methoxyphenyl)piperidin-4-amine], the inhibition at 0.5 µM on PI3K alpha (setting [1]) and at PI3K alpha (setting [2]) was more than 70% each time. For the same molecule, the inhibition at 10 µM with MDA-MB231 Cell line lay in the range of 30 to 50%.

Regarding `FC(F)c1nc2ccccc2n1-c1nc(N2CCOCC2)nc(N2CCC(Nc3ccc(Cl)c(Cl)c3)CC2)n1` [1B26, N-(3,4-dichlorophenyl)-1-(4-(2-(difluoromethyl)-1H-benzo[d]imidazol-1-yl)-6-morpholino-1,3,5-triazin-2-yl)piperidin-4-amine], the figures for the inhibition at 10 µM in the experiment on PC-3 Cell line, in the experiment on MDA-MB231 Cell line and with MCF-7 Cell line were 30 to 50%, more than 50% and more than 50%, respectively. The inhibition at 0.5 µM at PI3K alpha (setting [1]) and on PI3K alpha (setting [2]) was more than 70% throughout.

Turning to `FC(F)c1nc2ccccc2n1-c1nc(N2CCOCC2)nc(N2CCC(Nc3ccc(C(F)(F)F)cc3)CC2)n1` [1B22, 1-(4-(2-(difluoromethyl)-1H-benzo[d]imidazol-1-yl)-6-morpholino-1,3,5-triazin-2-yl)-N-(4-(trifluoromethyl)phenyl)piperidin-4-amine], the inhibition at 10 µM in the experiment on PC-3 Cell line and with MCF-7 Cell line was 30 to 50% each time. Besides, the inhibition at 0.5 µM at PI3K alpha (setting [1]) lay within 50 to 70%.

Consider `FC(F)c1nc2ccccc2n1-c1nc(N2CCOCC2)nc(N2CCOCC2)n1` [ZSTK474, reference compound], for which the inhibition at 10 µM in the experiment on PC-3 Cell line, in the experiment with MDA-MB231 Cell line and in the experiment on MCF-7 Cell line was more than 50% in each case. Moreover, the “In vitro PI3K α % of inhibition” value on PI3K alpha was “++ (++ indicates greater than 70% of inhibition)”.

Consider `O=C(N(c1ccccc1)c1nc(N2CCOCC2)nc(N2CCC(Oc3ccc(OC(F)(F)F)cc3)CC2)n1)C(F)(F)F` [1A9, 2,2,2-trifluoro-N-(4-morpholino-6-(4-(4-(trifluoromethoxy)phenoxy)piperidin-1-yl)-1,3,5-triazin-2-yl)-N-phenylacetamide], for which the figures for the inhibition at 10 µM with PC-3 Cell line, with MDA-MB231 Cell line and with MCF-7 Cell line were 30 to 50%, more than 50% and more than 50%, respectively. Moreover, the inhibition at 0.5 µM on PI3K alpha (setting [1]) and at PI3K alpha (setting [2]) was more than 70% throughout.

In the case of `COc1ccccc1NC1CCN(c2nc(N3CCOCC3)nc(-n3c(C(F)F)nc4ccccc43)n2)CC1` [1B28, 1-(4-(2-(difluoromethyl)-1H-benzo[d]imidazol-1-yl)-6-morpholino-1,3,5-triazin-2-yl)-N-(2-methoxyphenyl)piperidin-4-amine], the inhibition at 10 µM was 30 to 50% with PC-3 Cell line and more than 50% in the experiment with MCF-7 Cell line. Besides, the inhibition at 0.5 µM on PI3K alpha (setting [1]) and at PI3K alpha (setting [2]) was more than 70% each time.

Take `FC(F)c1nc2ccccc2n1-c1nc(N2CCOCC2)nc(N2CCC(Nc3ccc(Br)cc3)CC2)n1` [1B25, N-(4-bromophenyl)-1-(4-(2-(difluoromethyl)-1H-benzo[d]imidazol-1-yl)-6-morpholino-1,3,5-triazin-2-yl)piperidin-4-amine]: the results for the inhibition at 10 µM with PC-3 Cell line and with MCF-7 Cell line were 30 to 50% and more than 50%, respectively. For the same molecule, the inhibition at 0.5 µM on PI3K alpha (setting [1]) and on PI3K alpha (setting [2]) was more than 70% each time.

For `COc1ccc(OC2CCN(c3nc(N4CCOCC4)nc(-n4c(C(F)F)nc5ccccc54)n3)CC2)cc1` [1B2, 4-(4-(2-(difluoromethyl)-1H-benzo[d]imidazol-1-yl)-6-(4-(4-methoxyphenoxy)piperidin-1-yl)-1,3,5-triazin-2-yl)morpholine], the inhibition at 10 µM in the experiment on PC-3 Cell line was 30 to 50%; in the experiment with MDA-MB231 Cell line it was more than 50%; in the experiment on MCF-7 Cell line, more than 50%. The inhibition at 0.5 µM on PI3K alpha (setting [1]) was 50 to 70%.

Take `FC(F)c1nc2ccccc2n1-c1nc(N2CCOCC2)nc(N2CCC(Oc3cccc(Cl)c3)CC2)n1` [1B6, 4-(4-(4-(3-chlorophenoxy)piperidin-1-yl)-6-(2-(difluoromethyl)-1H-benzo[d]imidazol-1-yl)-1,3,5-triazin-2-yl)morpholine]: the results for the inhibition at 10 µM in the experiment with PC-3 Cell line and in the experiment on MCF-7 Cell line were 30 to 50% and more than 50%, respectively. Also, on PI3K alpha (setting [1]), the inhibition at 0.5 µM is 50 to 70%.

For `Cc1cccc(OC2CCN(c3nc(N4CCOCC4)nc(-n4c(C(F)F)nc5ccccc54)n3)CC2)c1` [1B11, 4-(4-(2-(difluoromethyl)-1H-benzo[d]imidazol-1-yl)-6-(4-(m-tolyloxy)piperidin-1-yl)-1,3,5-triazin-2-yl)morpholine], the inhibition at 10 µM was more than 50% in the experiment on PC-3 Cell line and 30 to 50% with MDA-MB231 Cell line. Further, the inhibition at 0.5 µM at PI3K alpha (setting [1]) and at PI3K alpha (setting [2]) was more than 70% throughout.

`FC(F)c1cc2ccccc2n1-c1nc(N2CCOCC2)nc(N2CCC(Nc3ccc(Cl)cc3)CC2)n1` [1B50, N-(4-chlorophenyl)-1-(4-(2-(difluoromethyl)-1H-indol-1-yl)-6-morpholino-1,3,5-triazin-2-yl)piperidin-4-amine]: at PI3K alpha (setting [1]), the inhibition at 0.5 µM lay within 50 to 70%.

One may read the inhibition as the share of the control response that was lost under treatment.
